In brackets after ≈: the same amount, converted by molar mass. Like-named read-outs stand apart in the source and are kept apart here.
Tested on: E. coli ATCC 25922
Assay: Broth microdilution MIC
Format: cell-based, Escherichia coli
Settings: for MIC: Escherichia coli
Method: The process for preparing susceptibility test medium are the following steps: • a. Preparing Mueller Hinton Broth II medium by adding 22 grams powdered media to 1.0 liter distilled water; • b. Autoclaving (121° C., 15 psi, 15 minutes) and cooling the medium; • c. Adding Oxyrase® up to about 10% final volume and keeping at 35-37° C. in an incubator for 30 minutes; • d. Adding about 50 μL to each well of a 96 well microtiter plate; • e. Weighing drug and adding broth to drug to bring up to about (standard 128 μg/ml); • f. Adding 50 μL of the drug to the first column of the titer plate; • g. Diluting by two-fold serial diluting across or down the plate. • h. Preparing a Prompt™ inoculum at 10^8 CFU/ml; • i. Diluting inoculum 1:100 in the broth at […] in 9.9 ml (1:100) is 10^6 colony forming units (CFU) forming the adjusted inoculum; • j. Adding 50 μL of the adjusted inoculum to the wells of the microtiter plate; • k. Incubating the plates at 35-37° C. for 18-22 hours; and • l. Reading, with the unaided eye, the MIC.
The in vitro activities of tigecycline and control antibiotics were determined by the broth microdilution method as recommended by the NCCLS. (National Committee for Clinical Laboratory Standards, 2003. Methods for Dilution Antimicrobial Susceptibility Tests for Bacteria That Grow Aerobically; Approved Standards: M7-A6, Sixth ed, vol. 23., National Committee for Clinical Laboratory Standards Wayne, Pa.) was used for the standard procedures. MBH with 5% lysed horse blood was used for testing S. pneumoniae and Haemophilus Test Medium was used for testing H. influenzae. Oxyrase® (Oxyrase Inc, Mansfield, Ohio) was used according to the manufacturer's instructions by adding 1 ml of Oxyrase® to 50 ml of media. Media age studies were performed by preparing MHB in multiple flasks, then storing the media under various conditions. MICs were usually performed in duplicate on each day of testing. Storage under anaerobic conditions was conducted in an anaerobic chamber (MACS MG 1000, Don Whitley Scientific LTD). The pH of the media was determined by pH meter (Corning 430). A comparison of the in vitro activity of tigecycline by agar and broth dilution methodolgies with and without Oxyrase® against clinical isolates is shown in Table 1.

[1] = Table 8, E. coli ATCC 25922, Mueller Hinton Broth + Oxyrase, n = 240

CN(C)c1cc(NC(=O)CNC(C)(C)C)c(O)c2c1C[C@H]1C[C@H]3[C@H](N(C)C)C(O)=C(C(N)=O)C(=O)[C@@]3(O)C(O)=C1C2=O [Tigecycline, tigecycline]
MIC (ATCC25922, 0 h, E. coli ATCC 25922, Day 0, Pre-prepared media, room temperature, N = 6): 0.12 µg/mL (≈ 0.205 µM)
MIC (ATCC25922, 0 h, E. coli ATCC 25922, Day 0, media Fresh from Powder 2° C., N = 6): 0.03 to 0.06 µg/mL (≈ 0.0512 to 0.102 µM)
MIC (ATCC25922, 0 h, E. coli ATCC 25922, Day 0, media Fresh from Powder, room temperature, N = 6): 0.03 µg/mL (≈ 0.0512 µM)
MIC (ATCC25922, 24 h, E. coli ATCC 25922, Day 1, Pre-prepared media, room temperature, N = 6): 0.12 to 0.25 µg/mL (≈ 0.205 to 0.427 µM)
MIC (ATCC25922, 24 h, E. coli ATCC 25922, Day 1, media Fresh from Powder 2° C., N = 6): 0.03 to 0.06 µg/mL (≈ 0.0512 to 0.102 µM)
MIC (ATCC25922, 24 h, E. coli ATCC 25922, Day 1, media Fresh from Powder, room temperature, N = 6): 0.06 µg/mL (≈ 0.102 µM)
MIC (ATCC25922, 168 h, E. coli ATCC 25922, Day 7, Pre-prepared media, room temperature, N = 6): 0.12 to 0.25 µg/mL (≈ 0.205 to 0.427 µM)
MIC (ATCC25922, 168 h, E. coli ATCC 25922, Day 7, media Fresh from Powder 2° C., N = 6): 0.06 µg/mL (≈ 0.102 µM)
MIC (ATCC25922, 168 h, E. coli ATCC 25922, Day 7, media Fresh from Powder, room temperature, N = 6): 0.12 µg/mL (≈ 0.205 µM)
MIC (ATCC25922, 336 h, E. coli ATCC 25922, Day 14, Pre-prepared media, room temperature, N = 6): 0.12 to 0.25 µg/mL (≈ 0.205 to 0.427 µM)
MIC (ATCC25922, 336 h, E. coli ATCC 25922, Day 14, media Fresh from Powder 2° C., N = 6): 0.12 to 0.25 µg/mL (≈ 0.205 to 0.427 µM)
MIC (ATCC25922, 336 h, E. coli ATCC 25922, Day 14, media Fresh from Powder, room temperature, N = 6): 0.12 to 0.25 µg/mL (≈ 0.205 to 0.427 µM)
MIC (ATCC25922, 336 h, read-out: Minimal Inhibitory Concentration, E. coli ATCC 25922, media Aged Aerobic (2 weeks at RT under room air), N = 4): 0.12 to 0.25 µg/mL (≈ 0.205 to 0.427 µM)
MIC (ATCC25922, 504 h, E. coli ATCC 25922, Day 21, media Fresh from Powder 2° C., N = 6): 0.25 µg/mL (≈ 0.427 µM)
MIC (ATCC25922, 504 h, E. coli ATCC 25922, Day 21, media Fresh from Powder, room temperature, N = 6): 0.12 to 0.25 µg/mL (≈ 0.205 to 0.427 µM)
MIC (ATCC25922, 672 h, E. coli ATCC 25922, Day 28, Pre-prepared media, room temperature, N = 6): 0.12 to 0.25 µg/mL (≈ 0.205 to 0.427 µM)
MIC (ATCC25922, 672 h, E. coli ATCC 25922, Day 28, media Fresh from Powder 2° C., N = 6): 0.12 µg/mL (≈ 0.205 µM)
MIC (ATCC25922, 672 h, E. coli ATCC 25922, Day 28, media Fresh from Powder, room temperature, N = 6): 0.12 to 0.25 µg/mL (≈ 0.205 to 0.427 µM)
MIC (ATCC25922, read-out: Minimal Inhibitory Concentration (modal value), E. coli ATCC 25922, Aged Media + Oxyrase, N = 8): 0.12 µg/mL
MIC (ATCC25922, read-out: Minimal Inhibitory Concentration (modal value), E. coli ATCC 25922, Aged media, N = 8): 0.25 µg/mL (≈ 0.427 µM)
MIC (ATCC25922, read-out: Minimal Inhibitory Concentration (modal value), E. coli ATCC 25922, Fresh Media + Oxyrase, N = 8): 0.12 µg/mL
MIC (ATCC25922, read-out: Minimal Inhibitory Concentration (modal value), E. coli ATCC 25922, Freshly Prepared Media, N = 8): 0.12 µg/mL (≈ 0.205 µM)
MIC (ATCC25922, read-out: Minimal Inhibitory Concentration, E. coli ATCC 25922, 2% Oxyrase): 0.03 µg/mL (≈ 0.0512 µM)
MIC (ATCC25922, read-out: Minimal Inhibitory Concentration, E. coli ATCC 25922, Aged Media + Oxyrase, N = 8): 0.12 to 0.25 µg/mL
MIC (ATCC25922, read-out: Minimal Inhibitory Concentration, E. coli ATCC 25922, Aged media, N = 8): 0.25 to 0.5 µg/mL (≈ 0.427 to 0.854 µM)
MIC (ATCC25922, read-out: Minimal Inhibitory Concentration, E. coli ATCC 25922, Commercially Prepared media, N = 4): 0.12 to 0.25 µg/mL (≈ 0.205 to 0.427 µM)
MIC (ATCC25922, read-out: Minimal Inhibitory Concentration, E. coli ATCC 25922, Fresh Media + Oxyrase, N = 8): 0.06 to 0.12 µg/mL
MIC (ATCC25922, read-out: Minimal Inhibitory Concentration, E. coli ATCC 25922, Freshly Prepared Media, N = 8): 0.12 to 0.25 µg/mL (≈ 0.205 to 0.427 µM)
MIC (ATCC25922, read-out: Minimal Inhibitory Concentration, E. coli ATCC 25922, Freshly Prepared media, N = 4): 0.03 µg/mL (≈ 0.0512 µM)
MIC (ATCC25922, read-out: Minimal Inhibitory Concentration, E. coli ATCC 25922, MHB II + 0.05% Catalase): 0.5 µg/mL
MIC (ATCC25922, read-out: Minimal Inhibitory Concentration, E. coli ATCC 25922, MHB II + 0.05% L-ascorbic Acid): 2 µg/mL
MIC (ATCC25922, read-out: Minimal Inhibitory Concentration, E. coli ATCC 25922, MHB II + 0.05% L-cysteine): 0.5 µg/mL
MIC (ATCC25922, read-out: Minimal Inhibitory Concentration, E. coli ATCC 25922, MHB II + 0.05% Sodium Pyruvate): 0.12 µg/mL
MIC (ATCC25922, read-out: Minimal Inhibitory Concentration, E. coli ATCC 25922, MHB II + 0.05% Thioglycolate): 0.12 µg/mL
MIC (ATCC25922, read-out: Minimal Inhibitory Concentration, E. coli ATCC 25922, MHB II + 2% Oxyrase): 0.06 µg/mL
MIC (ATCC25922, read-out: Minimal Inhibitory Concentration, E. coli ATCC 25922, Mueller Hinton Broth II (Fresh)): 0.06 to 0.25 µg/mL (≈ 0.102 to 0.427 µM)
MIC (ATCC25922, read-out: Minimal Inhibitory Concentration, E. coli ATCC 25922, Mueller Hinton Broth II (MHB II)): 0.12 to 0.25 µg/mL (≈ 0.205 to 0.427 µM)
MIC (ATCC25922, read-out: Minimal Inhibitory Concentration, E. coli ATCC 25922, No Oxyrase): 0.12 µg/mL (≈ 0.205 µM)
MIC (ATCC25922, read-out: Minimal Inhibitory Concentration, E. coli ATCC 25922, media Aged Anaerobic, N = 4): 0.03 to 0.06 µg/mL (≈ 0.0512 to 0.102 µM)
Number of Occurrences of MIC 0.06 ug/ml [1]: 130
Number of Occurrences of MIC 0.12 ug/ml [1]: 103
Number of Occurrences of MIC 0.25 ug/ml [1]: 5
Number of Occurrences of MIC 1 ug/ml [1]: 2
Number of Occurrences of MIC 0.12 ug/ml (Table 8, E. coli ATCC 25922, Mueller Hinton Broth, n = 320): 24
